Assay results as given in publication PMC3038857, “Using Nuclear Receptor Activity to Stratify Hepatocarcinogens” (PLoS ONE, 2011).

Experiments:
Mouse Liver [1] = conditions: mouse, chronic study, ref ToxRefDB; cited from earlier work
CYP2B6 = experiment: CLZD_CYP2B6: Change in expression of CYP2B6 (primary human hepatocytes); format: cell-based; conditions: 24 hr
Summary of the method: (§1)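 Primary human hepatocyte cultures were exposed to test chemicals at 5 concentrations (0.004-40 µM) for 6, 24 or 48 hr.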

[2] = target: T1, AHR (aryl hydrocarbon receptor) (Homo sapiens, UniProt P35869); experiment: ATG_Ahr_CIS: Factorial reporter gene assay (multiplexed transcription reporter, HepG2); format: cell-based; conditions: HepG2
T1 construct: endogenous in cells; host or cells: HepG2
T1 sequence (P35869 11-848): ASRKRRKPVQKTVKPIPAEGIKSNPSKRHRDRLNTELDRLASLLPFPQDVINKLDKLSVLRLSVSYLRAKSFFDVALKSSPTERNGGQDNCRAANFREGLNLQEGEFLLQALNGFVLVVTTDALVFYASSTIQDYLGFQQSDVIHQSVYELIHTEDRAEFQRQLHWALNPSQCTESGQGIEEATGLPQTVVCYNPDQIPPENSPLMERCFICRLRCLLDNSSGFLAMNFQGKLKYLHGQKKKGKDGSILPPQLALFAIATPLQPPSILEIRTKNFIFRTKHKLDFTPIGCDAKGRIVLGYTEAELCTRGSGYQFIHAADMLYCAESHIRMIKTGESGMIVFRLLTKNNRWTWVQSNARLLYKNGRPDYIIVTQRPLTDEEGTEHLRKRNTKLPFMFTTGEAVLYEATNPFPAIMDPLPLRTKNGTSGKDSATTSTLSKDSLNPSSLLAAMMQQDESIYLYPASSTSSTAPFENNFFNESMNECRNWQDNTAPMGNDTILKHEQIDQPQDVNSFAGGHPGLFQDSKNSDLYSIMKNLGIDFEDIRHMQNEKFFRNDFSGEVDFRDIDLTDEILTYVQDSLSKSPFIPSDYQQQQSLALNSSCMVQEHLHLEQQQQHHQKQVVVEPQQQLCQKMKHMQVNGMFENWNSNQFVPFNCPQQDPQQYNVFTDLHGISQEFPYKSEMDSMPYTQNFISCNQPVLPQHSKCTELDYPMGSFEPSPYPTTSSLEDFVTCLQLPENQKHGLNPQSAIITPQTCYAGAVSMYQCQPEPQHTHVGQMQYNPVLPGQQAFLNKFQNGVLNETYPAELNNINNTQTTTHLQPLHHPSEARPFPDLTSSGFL
Description: (§2) A multiple reporter transcription unit (MRTU) library consisting of 48 transcription factor binding sites was transfected into the HepG2 human liver hepatoma cell line. In addition to the cis-acting reporter genes (CIS), a modification of the approach was used to generate a trans-system (TRANS) with a mammalian one-hybrid assay consisting of an additional 25 MRTU library reporting the activity of nuclear receptor super-family members. […] These assays were performed by Attagene Inc. (Morrisville NC) under contract to EPA.
(§3) In addition to the cis-acting reporter genes (CIS), a modification of the approach was used to generate a trans-system (TRANS) with a mammalian one-hybrid assay consisting of an additional 25 MRTU library reporting the activity of nuclear receptor super-family members. […] Chemicals were then tested in the CIS and TRANS assays at seven concentrations starting at the MTC and followed by three-fold serial dilutions. These assays were performed by Attagene Inc. (Morrisville NC) under contract to EPA. Detailed description of the methods, data and analysis methods for this dataset will be presented in a separate publication.

Mouse Liver [3] = conditions: mouse, chronic study, ref ToxRefDB; cited from earlier work; remark: listed apart in the source
Mouse Liver [4] = conditions: mouse, chronic study, ref ToxRefDB; cited from earlier work; remark: listed apart in the source
[5] = target: T2, ESR1 (estrogen receptor 1) (Homo sapiens, UniProt P03372); experiment: ATG_ERa_TRANS: Factorial reporter gene assay (HepG2); format: cell-based; conditions: HepG2
T2 construct: expressed in transfected cells; host or cells: HepG2
Description: as §2, §3

CYP3A4 = experiment: CLZD_CYP3A4: Change in expression of CYP3A4 (primary human hepatocytes); format: cell-based; conditions: 24 hr
Summary of the method: as §1

PXR (NR1I2) [6] = target: T3, PXR (NR1I2) (Homo sapiens, UniProt O75469); experiment: ATG_PXRE_CIS: Factorial reporter gene assay (HepG2); format: cell-based; parameters: endogenous in cells; host or cells: HepG2; conditions: HepG2
T3 sequence (O75469 1-434): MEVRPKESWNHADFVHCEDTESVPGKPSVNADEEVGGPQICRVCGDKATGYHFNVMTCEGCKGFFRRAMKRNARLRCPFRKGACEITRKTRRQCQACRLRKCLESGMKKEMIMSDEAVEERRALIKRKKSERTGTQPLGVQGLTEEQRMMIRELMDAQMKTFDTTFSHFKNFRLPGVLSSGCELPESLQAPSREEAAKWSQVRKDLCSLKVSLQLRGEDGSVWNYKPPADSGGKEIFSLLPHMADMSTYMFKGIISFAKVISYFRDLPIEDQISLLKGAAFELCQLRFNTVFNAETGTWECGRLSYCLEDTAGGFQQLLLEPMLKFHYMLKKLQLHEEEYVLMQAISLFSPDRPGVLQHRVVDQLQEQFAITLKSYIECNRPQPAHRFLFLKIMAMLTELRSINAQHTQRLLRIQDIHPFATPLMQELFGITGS
Summary of the method: (§4)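 Seven concentrations per chemical, three-fold dilutions down from the MTC, were tested in HepG2 hepatoma cells. Those cells carried a multiple reporter transcription unit library, read either as cis transcription-factor-site reporters or as a trans mammalian one-hybrid panel for nuclear receptors.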

Rat Liver [7] = conditions: rat, chronic study, ref ToxRefDB; cited from earlier work
Rat Liver [8] = conditions: rat, chronic study, ref ToxRefDB; cited from earlier work; remark: listed apart in the source
PXR (NR1I2) [9] = target: T3, PXR (NR1I2); experiment: NVS_NR_hPXR: Human PXR Fluormone PXR (SXR) green (cell-free HTS); format: binding
Summary of the method: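 Cell-free biochemical binding assays; chemicals first screened at a single concentration of 25 […] M in duplicate wells. Signals normalised to same-plate solvent controls as percent of neutral control, and AC50 values came from Hill-equation fits of concentration-response curves.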

Rat Liver [10] = conditions: rat, chronic study, ref ToxRefDB; cited from earlier work; remark: listed apart in the source
PXR Human (NR1I2) = target: T4, PXR Human (NR1I2) (Homo sapiens, UniProt O75469); experiment: NCGC_PXR_Agonist_human: GAL4 BLAM Reporter gene assay: PXR Human; format: cell-based; conditions: agonist mode
T4 sequence (O75469 146-434 limits assumed): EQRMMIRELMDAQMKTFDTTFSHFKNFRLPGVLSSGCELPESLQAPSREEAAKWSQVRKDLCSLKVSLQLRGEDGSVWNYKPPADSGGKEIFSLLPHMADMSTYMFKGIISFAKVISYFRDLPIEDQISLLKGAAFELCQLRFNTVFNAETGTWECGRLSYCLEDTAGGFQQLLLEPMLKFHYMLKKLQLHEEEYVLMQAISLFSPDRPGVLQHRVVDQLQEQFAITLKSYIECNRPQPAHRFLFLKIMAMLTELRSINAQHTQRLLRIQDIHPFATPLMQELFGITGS
Description: These assays measure binding constants and enzyme inhibition values for nuclear receptors. The targets include [drawing 67] , [drawing 68] , [drawing 69] , [drawing 70] , [drawing 71] , [drawing 72] , [drawing 73] , [drawing 74] , [drawing 75] and [drawing 76] . Each of the nuclear receptor targets was measured in agonist mode. Assays were run at the NIH Chemical Genomics Center (Rockville, MD).
Cell-based HTS Assays: These assays measuring binding constants and enzyme inhibition values for nuclear receptors. The targets include AR, ER, FXR, LXR, PPARα, PPARδ, PPARγ, RXRα, RXRβ and PXR. Each of the nuclear receptor targets was measured in both agonist and antagonist mode, but the antagonist data is still undergoing analysis due to possible interference between cytotoxicity and assay activity, so antagonist mode data were not used in the present analysis. Assays were run at the NIH Chemical Genomics Center (Rockville, MD) as part of the Tox21 collaboration. […] The R^2 was required to be ≥0.5. Values where only the highest concentration exceeded 50% activity were excluded to eliminate weak or false positives. Detailed description of the methods, data and analysis methods for this dataset will be presented in a separate publication.

PXR (NR1I2) [11] = target: T3, PXR (NR1I2); experiment: ATG_PXR_TRANS: Factorial reporter gene assay (HepG2); format: cell-based; parameters: endogenous in cells; host or cells: HepG2; conditions: HepG2
Summary of the method: as §4

CYP1A2 = experiment: CLZD_CYP1A2: Change in expression of CYP1A2 (primary human hepatocytes); format: cell-based; conditions: 24 hr
Summary of the method: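 Five-point concentration series (0.004-40 µM) applied to primary human hepatocytes; 6/24/48 hr timepoints; transcript quantified by multiplexed nuclease protection.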

CYP1A1 = experiment: CLZD_CYP1A1: Change in expression of CYP1A1 (primary human hepatocytes); format: cell-based; conditions: 24 hr
Summary of the method: as §1

T2 sequence (P03372 whole entry): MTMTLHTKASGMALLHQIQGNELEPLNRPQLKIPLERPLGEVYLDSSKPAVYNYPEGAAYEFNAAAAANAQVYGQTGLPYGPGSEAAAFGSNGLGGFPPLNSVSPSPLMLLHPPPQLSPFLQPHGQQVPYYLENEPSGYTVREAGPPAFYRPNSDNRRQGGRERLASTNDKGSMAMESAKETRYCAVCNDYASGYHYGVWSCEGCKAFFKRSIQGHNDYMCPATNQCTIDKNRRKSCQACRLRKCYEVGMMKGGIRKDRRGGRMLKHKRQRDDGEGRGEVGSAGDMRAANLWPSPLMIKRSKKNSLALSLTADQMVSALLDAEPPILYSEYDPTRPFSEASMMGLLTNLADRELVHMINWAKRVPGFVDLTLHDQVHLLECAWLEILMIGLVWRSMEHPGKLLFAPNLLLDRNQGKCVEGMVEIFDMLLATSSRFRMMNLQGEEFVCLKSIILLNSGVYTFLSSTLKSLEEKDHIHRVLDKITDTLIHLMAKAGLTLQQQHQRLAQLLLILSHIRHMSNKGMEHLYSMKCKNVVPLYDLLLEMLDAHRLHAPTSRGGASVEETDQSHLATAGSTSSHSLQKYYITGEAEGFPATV

Row | Structure (SMILES) | CHR_Mouse_Liver_3_NeoplasticLesion (Mouse Liver [1]) | CLZD_CYP2B6_24 (CYP2B6) | ATG_Ahr_CIS [2] | CHR_Mouse_Liver_1_AnyLesion (Mouse Liver [3]) | CHR_Mouse_Liver_2_PreneoplasticLesion (Mouse Liver [4]) | ATG_ERa_TRANS [5] | CLZD_CYP3A4_24 (CYP3A4) | ATG_PXRE_CIS (PXR (NR1I2) [6]) | CHR_Rat_Liver_2_PreneoplasticLesion (Rat Liver [7]) | CHR_Rat_Liver_1_AnyLesion (Rat Liver [8]) | NVS_NR_hPXR (PXR (NR1I2) [9]) | CHR_Rat_Liver_3_NeoplasticLesion (Rat Liver [10]) | NCGC_PXR_Agonist_human (PXR Human (NR1I2)) | ATG_PXR_TRANS (PXR (NR1I2) [11]) | CLZD_CYP1A2_24 (CYP1A2) | CLZD_CYP1A1_24 (CYP1A1)
1 | CC1(C)C(C=C(Cl)Cl)C1C(=O)OCc1cccc(Oc2ccccc2)c1 (stereo not shown) [r242] | 6 | 4.991 | 4.125 | 6 | 6 | 4.523 | 5.668 | 4.959 | 0 | 6 | 4.444 | 0 | – | – | – | –
2 | CCOc1cc(Oc2ccc(C(F)(F)F)cc2Cl)ccc1[N+](=O)[O-] [r233] | – | 5.028 | – | 6 | 6 | 5.102 | 5.072 | 4.432 | – | – | – | – | 4.683 | 4.699 | 5.409 | 5.52
